Assays:
Assay in all cases: IA-DTB cysteine engagement
Format in all cases: binding
Conditions in all cases: 22Rv1 cells, 20 μM probe, 1 h, relative to DMSO
NSUN3_C298 = biological target: T1, NSUN3_C298 (Homo sapiens, UniProt Q9H649)
T1 construct: endogenous in cells; host or cells: 22Rv1
T1 sequence (Q9H649 1-340): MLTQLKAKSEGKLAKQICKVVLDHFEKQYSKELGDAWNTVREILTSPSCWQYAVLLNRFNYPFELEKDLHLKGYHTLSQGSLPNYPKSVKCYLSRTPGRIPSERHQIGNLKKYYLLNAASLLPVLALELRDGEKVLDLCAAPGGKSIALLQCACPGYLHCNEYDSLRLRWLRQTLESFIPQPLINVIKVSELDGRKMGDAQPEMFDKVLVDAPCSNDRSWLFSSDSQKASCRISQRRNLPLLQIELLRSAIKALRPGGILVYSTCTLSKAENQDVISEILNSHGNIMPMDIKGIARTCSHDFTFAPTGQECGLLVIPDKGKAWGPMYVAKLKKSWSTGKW
Outline: (§1)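 Probe-exposed cells were lysed, IA-DTB-labeled, trypsinized and streptavidin-enriched. Multiplexed TMT quantitation gave engagement ratios versus DMSO, with non-tryptic peptides excluded and intensities normalized to median summed signal.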

PTGES2_C110 = biological target: T2, PTGES2_C110 (Homo sapiens, UniProt Q9H7Z7)
T2 construct: endogenous in cells; host or cells: 22Rv1
Outline: as §1

FABP5_C127 = biological target: T3, FABP5_C127 (Homo sapiens, UniProt Q01469)
T3 construct: endogenous in cells; host or cells: 22Rv1
Outline: as §1

MMS19_C819 = biological target: T4, MMS19_C819 (Homo sapiens, UniProt Q96T76)
T4 construct: endogenous in cells; host or cells: 22Rv1
T4 sequence (Q96T76 1-1030): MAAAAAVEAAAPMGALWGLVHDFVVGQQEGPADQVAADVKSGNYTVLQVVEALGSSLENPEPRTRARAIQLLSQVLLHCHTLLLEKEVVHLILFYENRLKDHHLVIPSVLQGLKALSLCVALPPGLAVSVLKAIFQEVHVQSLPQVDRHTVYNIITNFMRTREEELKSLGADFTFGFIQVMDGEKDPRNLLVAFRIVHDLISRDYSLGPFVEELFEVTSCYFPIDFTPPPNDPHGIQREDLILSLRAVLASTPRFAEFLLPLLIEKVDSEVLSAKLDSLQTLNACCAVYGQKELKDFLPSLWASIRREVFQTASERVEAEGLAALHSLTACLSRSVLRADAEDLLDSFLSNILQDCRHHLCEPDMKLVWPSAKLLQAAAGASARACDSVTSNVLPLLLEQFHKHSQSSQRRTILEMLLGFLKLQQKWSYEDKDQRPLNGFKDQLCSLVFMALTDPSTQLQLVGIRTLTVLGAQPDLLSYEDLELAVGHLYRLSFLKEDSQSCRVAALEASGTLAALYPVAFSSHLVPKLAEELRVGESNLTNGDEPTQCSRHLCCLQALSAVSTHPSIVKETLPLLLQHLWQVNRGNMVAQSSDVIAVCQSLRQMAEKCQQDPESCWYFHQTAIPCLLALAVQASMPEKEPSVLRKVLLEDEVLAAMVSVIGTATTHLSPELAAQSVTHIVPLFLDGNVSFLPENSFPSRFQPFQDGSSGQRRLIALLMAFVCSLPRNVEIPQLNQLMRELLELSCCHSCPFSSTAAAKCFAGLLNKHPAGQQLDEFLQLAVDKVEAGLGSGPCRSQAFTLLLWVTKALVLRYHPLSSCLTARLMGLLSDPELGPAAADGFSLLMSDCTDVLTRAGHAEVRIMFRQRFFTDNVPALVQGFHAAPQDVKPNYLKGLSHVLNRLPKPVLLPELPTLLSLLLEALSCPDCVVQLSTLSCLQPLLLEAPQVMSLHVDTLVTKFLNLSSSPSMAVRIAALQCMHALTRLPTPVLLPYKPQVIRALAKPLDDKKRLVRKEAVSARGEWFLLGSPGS
Outline: as §1

T3 sequence (Q01469 whole entry): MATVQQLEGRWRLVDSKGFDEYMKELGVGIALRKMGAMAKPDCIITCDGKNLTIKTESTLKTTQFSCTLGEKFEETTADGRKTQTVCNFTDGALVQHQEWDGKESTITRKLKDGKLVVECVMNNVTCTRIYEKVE
T2 sequence (Q9H7Z7 whole entry): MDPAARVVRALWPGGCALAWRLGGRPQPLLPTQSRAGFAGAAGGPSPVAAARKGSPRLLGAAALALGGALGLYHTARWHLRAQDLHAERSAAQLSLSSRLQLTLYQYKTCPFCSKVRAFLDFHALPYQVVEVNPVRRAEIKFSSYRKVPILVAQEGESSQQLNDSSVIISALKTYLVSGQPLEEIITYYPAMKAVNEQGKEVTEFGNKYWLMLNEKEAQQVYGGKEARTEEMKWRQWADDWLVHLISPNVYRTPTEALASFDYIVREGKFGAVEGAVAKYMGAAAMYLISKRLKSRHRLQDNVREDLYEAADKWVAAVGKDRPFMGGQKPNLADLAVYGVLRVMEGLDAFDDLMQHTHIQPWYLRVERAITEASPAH

Row | SMILES | % engagement NSUN3_C298 (NSUN3_C298) | % engagement PTGES2_C110 (PTGES2_C110) | % engagement FABP5_C127 (FABP5_C127) | % engagement MMS19_C819 (MMS19_C819)
1 | C=CC(=O)N1C[C@H](c2ccc(Br)cc2)[C@H]1C(=O)Nc1cccc2cccnc12 [MY-3A, (2S,3S)-1-acryloyl-3-(4-bromophenyl)-N-(quinolin-8-yl)azetidine-2-carboxamide] | 38% | 69.75% | −13% | −10%
2 | C=CC(=O)N1C[C@H](c2ccc(Br)cc2)[C@@H]1C(=O)Nc1cccc2cccnc12 [MY-1B, (2R,3S)-1-acryloyl-3-(4-bromophenyl)-N-(quinolin-8-yl)azetidine-2-carboxamide] | 55.5% | 38.5% | 73% | 90%
3 | C=CC(=O)N1C[C@H](c2ccc(Br)cc2)[C@H]1C(=O)Nc1cccc2cccnc12 [MY-3B, (2S,3S)-1-acryloyl-3-(4-bromophenyl)-N-(quinolin-8-yl)azetidine-2-carboxamide] | 83% | 89.25% | −60.5% | 11%
4 | C=CC(=O)N1C[C@@H](c2ccc(Br)cc2)[C@H]1C(=O)Nc1cccc2cccnc12 [MY-1A, (2S,3R)-1-acryloyl-3-(4-bromophenyl)-N-(quinolin-8-yl)azetidine-2-carboxamide] | 35.5% | 31.25% | 0% | 1.5%

Source: US20250034216A1, “STEREOSELECTIVE COVALENT LIGANDS FOR ONCOGENIC AND IMMUNOLOGICAL PROTEINS” (The Scripps Research Institute, priority 2021, published 2025)
